Among the data in patent US20110319392A1, “Thiazole Sulfonamide And Oxazole Sulfonamide Kinase Inhibitors” (priority 2009, published 2011) are IC50 values, retold here.

The IC50 is the concentration that inhibits the measured activity by half. Read a low IC50 as higher potency.

One assay addresses T1, ErbB2 (Homo sapiens, UniProt P04626).
T1 construct: made in house; host or cells: baculovirus expression system
Briefly: ErbB-2 substrate phosphorylation assay (HTRF). Type of assay: biochemical. An outline of the steps:
(§1)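 Baculovirus-expressed EGFR (0.8 nM) or ErbB2 (10 nM) in enzyme mix, preincubated 1 h at 20 °C with compound (0.00027–47.6 μM final), then 90 min at 20 °C with substrate mix of 20 μM ATP, 0.8 uM biotinylated Peptide C, MnCl2, MOPS pH 7.5. Phosphotyrosine by HTRF; pIC50 reported.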
(In general: In TR-FRET formats the signal depends on donor and acceptor labels being close together.)

A further assay deals with Colo205 tumor cells. Briefly: Cell growth inhibition assay (CellTiter-Glo), Colo205. The settings on record: Homo sapiens, COLO 205, 72 h; 3 days incubation. Format: cell-based, Human. The procedure, abridged: (§2)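 Readout was CellTiter-Glo luminescence (total ATP, surrogate for cell number) after 3-day exposure at 37° C, 5% CO2 to 1:3 serial compound dilutions in 0.2% final DMSO. Seeding was 500 cells/well; IC50 derived by 4-parameter fit relative to vehicle-treated wells.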
Background: ATP-based viability assays read luminescence as a measure of living cells.

A further assay deals with SK-MEL-28 tumor cells. Briefly: Cell growth inhibition assay (CellTiter-Glo), SK-MEL-28. Format: cell-based, Human. The note with it: Homo sapiens, SK-MEL-28, 72 h; 3 days incubation. An outline of the steps:
as §2

A further assay deals with B-Raf (Homo sapiens, UniProt P15056). In words: B-Raf Accelerated MEK ATPase assay (BRAMA), Method A or B. Type of assay: biochemical. The settings on record: Method B: final MEK 150 nM, single end point read. The procedure, abridged:
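ADP production, initiated by catalytic activated Raf with unphosphorylated MEK, is followed by NADH oxidation through a PK/LDH coupled system. Method B differs from the kinetic Method A by a single end-point read and 150 nM final MEK.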

For another assay, the target named is T2, EGFR (Homo sapiens, UniProt P00533).
T2 construct: made in house; host or cells: baculovirus expression system
In words: EGFR substrate phosphorylation assay (HTRF). Type of assay: biochemical. An outline of the steps:
as §1

T1 sequence (P04626 23-1255): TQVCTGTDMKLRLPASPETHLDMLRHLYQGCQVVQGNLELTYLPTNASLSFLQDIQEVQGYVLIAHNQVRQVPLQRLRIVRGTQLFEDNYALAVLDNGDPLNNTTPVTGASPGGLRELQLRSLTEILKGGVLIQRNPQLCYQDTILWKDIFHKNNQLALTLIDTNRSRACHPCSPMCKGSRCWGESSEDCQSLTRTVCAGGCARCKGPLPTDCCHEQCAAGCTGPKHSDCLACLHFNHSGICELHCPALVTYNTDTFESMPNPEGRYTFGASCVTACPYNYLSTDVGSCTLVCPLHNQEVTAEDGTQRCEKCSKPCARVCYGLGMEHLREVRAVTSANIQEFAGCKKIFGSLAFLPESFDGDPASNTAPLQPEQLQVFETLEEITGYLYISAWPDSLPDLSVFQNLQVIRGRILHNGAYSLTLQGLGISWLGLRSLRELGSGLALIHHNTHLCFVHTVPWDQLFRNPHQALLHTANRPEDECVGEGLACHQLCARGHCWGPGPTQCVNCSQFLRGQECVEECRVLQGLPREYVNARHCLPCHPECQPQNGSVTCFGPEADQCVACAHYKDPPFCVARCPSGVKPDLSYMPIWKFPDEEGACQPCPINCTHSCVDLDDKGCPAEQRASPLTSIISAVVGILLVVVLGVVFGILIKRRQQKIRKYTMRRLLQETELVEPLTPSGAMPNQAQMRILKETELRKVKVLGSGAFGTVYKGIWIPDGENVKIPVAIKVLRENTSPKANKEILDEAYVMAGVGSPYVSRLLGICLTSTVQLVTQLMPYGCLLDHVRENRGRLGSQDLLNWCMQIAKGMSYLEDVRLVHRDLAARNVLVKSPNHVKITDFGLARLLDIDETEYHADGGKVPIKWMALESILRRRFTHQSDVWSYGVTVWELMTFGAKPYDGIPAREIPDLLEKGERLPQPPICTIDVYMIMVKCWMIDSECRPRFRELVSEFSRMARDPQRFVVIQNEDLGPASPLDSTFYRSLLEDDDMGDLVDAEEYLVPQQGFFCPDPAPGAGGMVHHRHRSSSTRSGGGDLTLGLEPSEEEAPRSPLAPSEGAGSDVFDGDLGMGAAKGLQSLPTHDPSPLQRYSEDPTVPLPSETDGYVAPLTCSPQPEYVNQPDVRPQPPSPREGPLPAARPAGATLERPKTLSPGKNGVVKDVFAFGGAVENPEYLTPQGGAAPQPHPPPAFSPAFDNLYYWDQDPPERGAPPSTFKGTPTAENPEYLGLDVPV
B-Raf, sequence (P15056 whole entry): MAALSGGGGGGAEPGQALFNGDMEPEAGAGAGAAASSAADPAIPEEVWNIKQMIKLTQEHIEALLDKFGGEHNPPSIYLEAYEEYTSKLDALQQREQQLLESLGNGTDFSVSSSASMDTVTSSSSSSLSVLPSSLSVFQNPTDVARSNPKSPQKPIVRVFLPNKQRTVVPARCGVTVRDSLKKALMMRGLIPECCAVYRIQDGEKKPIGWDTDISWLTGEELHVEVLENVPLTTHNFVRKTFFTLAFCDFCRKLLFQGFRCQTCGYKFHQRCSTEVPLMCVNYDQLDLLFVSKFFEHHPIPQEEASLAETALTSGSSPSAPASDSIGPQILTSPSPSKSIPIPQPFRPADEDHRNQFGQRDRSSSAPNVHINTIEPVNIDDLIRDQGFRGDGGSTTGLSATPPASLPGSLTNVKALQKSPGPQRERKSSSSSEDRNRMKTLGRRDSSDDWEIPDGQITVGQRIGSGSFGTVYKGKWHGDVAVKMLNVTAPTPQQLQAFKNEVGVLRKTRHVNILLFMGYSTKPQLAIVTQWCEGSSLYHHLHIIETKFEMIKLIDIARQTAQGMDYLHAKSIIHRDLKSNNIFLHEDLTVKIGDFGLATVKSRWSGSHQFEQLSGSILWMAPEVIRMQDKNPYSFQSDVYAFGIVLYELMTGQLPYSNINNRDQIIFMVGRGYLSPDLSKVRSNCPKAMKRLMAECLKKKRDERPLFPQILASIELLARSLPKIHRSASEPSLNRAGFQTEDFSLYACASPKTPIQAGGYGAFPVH
T2 sequence (P00533 25-1210): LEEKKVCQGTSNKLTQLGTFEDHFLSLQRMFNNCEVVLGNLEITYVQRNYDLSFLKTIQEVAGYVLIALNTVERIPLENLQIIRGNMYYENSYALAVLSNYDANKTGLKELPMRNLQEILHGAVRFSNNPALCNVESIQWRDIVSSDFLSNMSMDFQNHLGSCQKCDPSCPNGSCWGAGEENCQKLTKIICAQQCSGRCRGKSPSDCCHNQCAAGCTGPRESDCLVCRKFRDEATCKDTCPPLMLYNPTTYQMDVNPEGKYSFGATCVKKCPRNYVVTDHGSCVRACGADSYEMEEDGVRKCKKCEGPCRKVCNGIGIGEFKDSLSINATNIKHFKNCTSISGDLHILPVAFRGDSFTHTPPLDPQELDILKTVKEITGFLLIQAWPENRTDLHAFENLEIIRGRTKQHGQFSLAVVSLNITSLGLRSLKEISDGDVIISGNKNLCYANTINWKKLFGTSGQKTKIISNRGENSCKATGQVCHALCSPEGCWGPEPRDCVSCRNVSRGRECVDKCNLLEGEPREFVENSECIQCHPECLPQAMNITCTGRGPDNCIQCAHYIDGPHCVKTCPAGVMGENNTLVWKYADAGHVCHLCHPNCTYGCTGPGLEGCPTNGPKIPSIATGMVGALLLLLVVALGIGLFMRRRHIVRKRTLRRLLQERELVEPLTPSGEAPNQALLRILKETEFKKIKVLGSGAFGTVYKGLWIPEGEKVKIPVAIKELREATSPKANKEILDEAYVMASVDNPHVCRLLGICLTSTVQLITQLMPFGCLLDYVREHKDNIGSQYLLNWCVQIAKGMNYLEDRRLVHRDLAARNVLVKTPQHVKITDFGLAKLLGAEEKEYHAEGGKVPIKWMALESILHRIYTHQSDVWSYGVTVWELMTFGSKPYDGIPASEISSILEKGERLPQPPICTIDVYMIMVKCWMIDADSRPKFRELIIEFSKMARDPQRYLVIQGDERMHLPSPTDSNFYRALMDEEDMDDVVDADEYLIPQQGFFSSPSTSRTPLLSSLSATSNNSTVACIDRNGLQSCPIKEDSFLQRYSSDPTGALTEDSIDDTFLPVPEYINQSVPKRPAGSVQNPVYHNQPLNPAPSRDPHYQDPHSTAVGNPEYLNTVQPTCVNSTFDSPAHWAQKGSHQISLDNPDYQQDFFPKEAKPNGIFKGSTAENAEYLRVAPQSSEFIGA

Regarding `COc1cc(N2CCN(CCS(C)(=O)=O)CC2)c(C)cc1Nc1nccc(-c2sc(C(C)C)nc2-c2cccc(NS(=O)(=O)c3c(F)cccc3F)c2F)n1` [Example 125], the IC50 against ErbB2 is < 100 nM; in the assay with Colo205 tumor cells, 100 to 1000 nM; with SK-MEL-28 tumor cells, < 100 nM; at B-Raf, < 100 nM; on EGFR, < 100 nM.
On to `COc1c(Nc2nccc(-c3sc(C(C)C)nc3-c3cccc(NS(=O)(=O)c4c(F)cccc4F)c3)n2)ccc(N2CCN(CCS(C)(=O)=O)CC2)c1C` [Example 90], for which the half-inhibitory concentration (IC50) is > 1000 nM on ErbB2; 100 to 1000 nM in the assay on Colo205 tumor cells; 100 to 1000 nM with SK-MEL-28 tumor cells; < 100 nM at B-Raf; > 1000 nM on EGFR.
For the compound `CC(C)c1nc(-c2cccc(NS(=O)(=O)Cc3ccccc3)c2)c(-c2ccnc(Nc3ccc(N4CCOCC4)c(F)c3)n2)s1` [Example 86], the IC50 against ErbB2 was > 1000 nM; in the assay with Colo205 tumor cells, > 1000 nM; in the assay with SK-MEL-28 tumor cells it was > 1000 nM; on B-Raf, 100 to 1000 nM; at EGFR it was > 1000 nM.
For the compound `Cc1ccc(-c2nc(C(C)C)sc2-c2ccnc(Nc3ccc(N4CCOCC4)nc3)n2)cc1NS(=O)(=O)c1c(F)cccc1F` [Example 111], the IC50 at ErbB2 is 100 to 1000 nM; in the assay on Colo205 tumor cells, > 1000 nM; in the assay on SK-MEL-28 tumor cells, > 1000 nM; at B-Raf, 100 to 1000 nM; against EGFR, 100 to 1000 nM.
As to `COc1cc(N2CCN(CCS(C)(=O)=O)CC2)c(C)cc1Nc1nccc(-c2sc(C3CC3)nc2-c2cccc(NS(=O)(=O)c3c(F)cccc3F)c2)n1` [Example 175], the IC50 was < 100 nM against ErbB2; < 100 nM in the assay on Colo205 tumor cells; 100 to 1000 nM with SK-MEL-28 tumor cells; 100 to 1000 nM against B-Raf; 100 to 1000 nM against EGFR.
Consider `COc1cc(N2CCN(CCS(C)(=O)=O)CC2)c(C)cc1Nc1nccc(-c2sc(C(C)C)nc2-c2cccc(NS(=O)(=O)c3cnn(C)c3)c2)n1` [Example 173], for which the IC50 against ErbB2 is 100 to 1000 nM; in the assay on Colo205 tumor cells, 100 to 1000 nM; in the assay with SK-MEL-28 tumor cells, 100 to 1000 nM; on B-Raf, 100 to 1000 nM; against EGFR, > 1000 nM.
With `COc1cc(N2CCC(CCS(C)(=O)=O)CC2)c(C)cc1Nc1nccc(-c2sc(C(C)C)nc2-c2ccnc(NS(=O)(=O)c3c(F)cccc3F)c2)n1` [Example 108], the IC50 against ErbB2 was > 1000 nM; in the assay on Colo205 tumor cells it was 100 to 1000 nM; in the assay on SK-MEL-28 tumor cells it was > 1000 nM; against B-Raf it was < 100 nM; against EGFR it was > 1000 nM.
As to `Cc1[nH]c(=O)[nH]c(=O)c1S(=O)(=O)Nc1cccc(-c2nc(C(C)C)sc2-c2ccnc(Nc3ccc(N4CCOCC4)nc3)n2)c1` [Example 41], the IC50 on ErbB2 is > 1000 nM; in the assay with Colo205 tumor cells, > 1000 nM; with SK-MEL-28 tumor cells, > 1000 nM; at B-Raf, 100 to 1000 nM; against EGFR, > 1000 nM.
For `O=S(=O)(Nc1cc(-c2nc(N3CCCC3)oc2-c2ccnc(Nc3ccc(N4CCOCC4)c(F)c3)n2)ccc1F)c1ccccc1F` [Example 59], the 50% inhibitory concentration (IC50) on ErbB2 is > 1000 nM; in the assay with Colo205 tumor cells it was 100 to 1000 nM; in the assay with SK-MEL-28 tumor cells, 100 to 1000 nM; on B-Raf it was < 100 nM; against EGFR, > 1000 nM.
As for `COc1cc(N2CCN(CCS(C)(=O)=O)CC2)c(C)cc1Nc1nccc(-c2sc(C)nc2-c2cccc(NS(=O)(=O)c3c(F)cccc3F)c2)n1` [Example 134], the IC50 was 100 to 1000 nM against ErbB2; 100 to 1000 nM with Colo205 tumor cells; 100 to 1000 nM in the assay with SK-MEL-28 tumor cells; 100 to 1000 nM against B-Raf; < 100 nM at EGFR.
`CC(C)c1nc(-c2ccc(F)c(NS(=O)(=O)c3c(F)cccc3F)c2)c(-c2ccnc(Nc3ncc[nH]3)n2)s1` [Example 147]: the IC50 on ErbB2 was > 1000 nM; with Colo205 tumor cells, 100 to 1000 nM; in the assay on SK-MEL-28 tumor cells it was 100 to 1000 nM; against B-Raf, 100 to 1000 nM; at EGFR, > 1000 nM.
For `CC(C)c1nc(-c2ccc(F)c(NS(=O)(=O)c3ccccc3C(F)(F)F)c2)c(-c2ccnc(Nc3ccc(N4CCOCC4)nc3)n2)s1` [Example 135], the IC50 on ErbB2 was 100 to 1000 nM; in the assay on Colo205 tumor cells, 100 to 1000 nM; with SK-MEL-28 tumor cells, 100 to 1000 nM; on B-Raf, < 100 nM; against EGFR, > 1000 nM.
Turning to `Cc1cc(S(=O)(=O)Nc2cccc(-c3nc(C(C)C)sc3-c3ccnc(Nc4ccc(N5CCOCC5)nc4)n3)c2)c(F)cc1Cl` [Example 105], the half-inhibitory concentration (IC50) was 100 to 1000 nM at ErbB2; 100 to 1000 nM in the assay on Colo205 tumor cells; > 1000 nM in the assay with SK-MEL-28 tumor cells; 100 to 1000 nM against B-Raf; > 1000 nM against EGFR.
Take `COc1cc(N2CCN(CCS(C)(=O)=O)CC2)c(C)cc1Nc1nccc(-c2sc(C3CCOCC3)nc2-c2cccc(NS(=O)(=O)c3c(F)cccc3F)c2)n1` [Example 150]: the IC50 on ErbB2, with Colo205 tumor cells, in the assay with SK-MEL-28 tumor cells, on B-Raf and against EGFR was < 100 nM throughout.
For `CC(C)c1nc(-c2cccc(NS(=O)(=O)c3c(F)cccc3F)c2)c(-c2ccnc(Nc3cnc(N4CCOCC4)cc3O)n2)s1` [Example 139], the IC50 was > 1000 nM against ErbB2; 100 to 1000 nM in the assay with Colo205 tumor cells; 100 to 1000 nM in the assay on SK-MEL-28 tumor cells; < 100 nM on B-Raf; > 1000 nM against EGFR.
In the case of `COc1cc(N2CCN(CCS(C)(=O)=O)CC2)c(C)cc1Nc1nccc(-c2sc(C(C)C)nc2-c2cccc(NS(=O)(=O)c3c(F)cccc3F)n2)n1` [Example 45], the IC50 against ErbB2 was < 100 nM; in the assay with Colo205 tumor cells it was 100 to 1000 nM; in the assay on SK-MEL-28 tumor cells it was 100 to 1000 nM; at B-Raf, 100 to 1000 nM; on EGFR, < 100 nM.
`COc1cc(N2CCN(CCS(C)(=O)=O)CC2)c(C)cc1Nc1nccc(-c2sc(C(C)C)nc2-c2cccc(NS(=O)(=O)c3cccs3)c2)n1` [Example 50]: the IC50 against ErbB2 is < 100 nM; in the assay on Colo205 tumor cells it was < 100 nM; in the assay with SK-MEL-28 tumor cells it was 100 to 1000 nM; against B-Raf, < 100 nM; on EGFR, < 100 nM.
As for `COc1cc(N2CCN(CCS(C)(=O)=O)CC2)c(C)cc1Nc1nccc(-c2sc(C3CCCC3)nc2-c2cccc(NS(=O)(=O)c3c(F)cccc3F)c2)n1` [Example 149], the IC50 is 100 to 1000 nM against ErbB2; < 100 nM in the assay with Colo205 tumor cells; 100 to 1000 nM in the assay on SK-MEL-28 tumor cells; 100 to 1000 nM against B-Raf; > 1000 nM at EGFR.
As for `COc1ccc(S(=O)(=O)Nc2cccc(-c3nc(C(C)C)sc3-c3ccnc(Nc4ccc(N5CCOCC5)nc4)n3)c2)cc1OC` [Example 104], the IC50 against ErbB2 is > 1000 nM; in the assay on Colo205 tumor cells, 100 to 1000 nM; with SK-MEL-28 tumor cells, > 1000 nM; against B-Raf it was 100 to 1000 nM; against EGFR, > 1000 nM.
With `CC(C)c1nc(-c2cccc(NS(=O)(=O)c3cnn(C)c3)c2)c(-c2ccnc(Nc3ccc(N4CCOCC4)nc3)n2)s1` [Example 174], the IC50 at ErbB2 is > 1000 nM; in the assay on Colo205 tumor cells, < 100 nM; in the assay on SK-MEL-28 tumor cells, < 100 nM; at B-Raf it was < 100 nM; on EGFR, > 1000 nM.
Regarding `CCc1nc(-c2cccc(CNS(=O)(=O)c3ccccc3)c2)c(-c2ccnc(Nc3ccc(N4CCN(CCS(C)(=O)=O)CC4)c(F)c3)n2)s1` [Example 35], the IC50 on ErbB2 was 100 to 1000 nM; in the assay on Colo205 tumor cells, > 1000 nM; with SK-MEL-28 tumor cells it was > 1000 nM; at B-Raf, 100 to 1000 nM; against EGFR, 100 to 1000 nM.
